Consider two molecules from patent US20210386689A1, “METHODS OF TREATING CENTRAL NERVOUS SYSTEM DISORDERS” (Sunovion Pharmaceuticals Inc., priority 2018, published 2021).

Series [1] is described as follows: clinical. Conditions: human, in vivo. How it is done:
Eight clinical studies—including single dose pharmacokinetic (PK), multiple dose PK, efficacy, safety, and tolerability, human abuse liability, absorption, metabolism, and excretion, and safety, efficacy, and tolerability in adults with attention-deficit hyperactivity disorder—were completed with dasotraline. In those studies, single doses ranging from 0.2 mg to 36 mg and multiple doses from 0.5 mg/day to 8 mg/day for 21 to 56 days were evaluated. Dasotraline was slowly absorbed into the systemic circulation, reaching time of maximum observed plasma concentration (tmax) approximately 10 to 12 hours after single administration of doses ranging from 0.2 to 36 mg. The change in maximum observed plasma concentration (Cmax) with dose was nearly dose proportional for the same doses. […] Dasotraline is extensively metabolized by oxidation and subsequent phase II metabolism. CYP2B6 oxidizes dasotraline to “dasotraline oxime”: […]

Another series has as its target T1, CYP2B6 (Homo sapiens, UniProt P20813).
T1 construct: measuring the activity of CYP2B6 in human liver microsomes; from tissue; host or cells: human liver microsomes
T1 sequence (P20813 1-491): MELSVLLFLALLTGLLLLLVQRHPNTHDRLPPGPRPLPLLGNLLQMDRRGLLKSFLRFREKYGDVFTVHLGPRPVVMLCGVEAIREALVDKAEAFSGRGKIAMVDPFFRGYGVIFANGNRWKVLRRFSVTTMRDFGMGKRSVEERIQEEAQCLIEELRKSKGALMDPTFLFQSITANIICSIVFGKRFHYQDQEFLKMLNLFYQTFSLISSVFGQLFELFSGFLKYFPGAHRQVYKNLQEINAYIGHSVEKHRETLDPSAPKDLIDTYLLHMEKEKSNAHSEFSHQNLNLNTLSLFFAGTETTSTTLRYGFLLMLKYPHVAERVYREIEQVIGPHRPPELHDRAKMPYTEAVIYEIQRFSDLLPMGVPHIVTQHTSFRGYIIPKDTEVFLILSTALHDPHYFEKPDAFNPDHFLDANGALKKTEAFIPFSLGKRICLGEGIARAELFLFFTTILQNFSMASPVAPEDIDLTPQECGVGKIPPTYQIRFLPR
The series can be described thus: Inhibition of CYP2B6 activity in human liver microsomes (direct and time-dependent). It counts as in vitro ADME. How it is done: The inhibitory potency of dasotraline was determined in vitro by measuring the activity of CYP2B6 in human liver microsomes in the presence and absence of dasotraline. […] Furthermore, dasotraline was determined to be a time-dependent inhibitor of CYP2B6 with an apparent inactivation constant of 0.12 μM and a maximal inactivation rate constant of 0.15 min-1. Based on the Food and Drug Administration Draft Guidance: Drug Interaction Studies (February 2012) and the prediction using physiologically-based PK modeling and simulation there is a potential for dasotraline to inhibit the metabolism pathway of CYP2B6 substrates through time-dependent inhibition. Therefore, the effect of dasotraline on the PK of a CYP2B6 substrate (ie, efavirenz) was studied clinically.

Series [2] in a line: clinical. Conditions: human, in vivo. The method, then: A randomized, 2-way crossover study to evaluate the effect of dasotraline on the pharmacokinetics (PK) of efavirenz, a sensitive cytochrome P450 2B6 (CYP2B6) substrate, and to assess the safety and tolerability of a single dose of dasotraline given concurrently with efavirenz was conducted.
Methodology: The study enrolled 29 healthy, non-smoking male and female subjects. All subjects were randomized to one of two treatment sequences: (A) Single doses of placebo and 400 mg efavirenz followed 28 days later by single doses of 24 mg dasotraline and 400 mg efavirenz; or (B) Single doses of 24 mg dasotraline and 400 mg efavirenz followed 28 days later by single doses of placebo and 400 mg efavirenz. Dasotraline and placebo were administered 6 hours prior to the planned dosing time of efavirenz. A screening period of approximately 4 weeks was followed by 2 treatment periods, each of which included approximately 78 hours in-clinic confinement followed by 3 outpatient follow-up visits. Dose administration occurred on Day 1 and Day 29. During the first treatment period, subjects were admitted to the clinic on Day −1, the day before first study drug administration (Day 1), and remained in clinic until discharge on Day 3. Subjects returned to the clinic for 3 subsequent visits (Days 5, 7, and 14) for PK sample collection. Following a washout period (consisting of 28 non-dosing days), subjects returned and were readmitted to the clinic for the second treatment period on Day 28, the day before the second study drug administration (Day 29), and remained in clinic until discharge on Day 31. Subjects returned to the clinic for 3 subsequent visits (Days 33, 35, and 42) for PK sample collection. Day 42 was the End of Study visit.
Evaluation: Blood for serial PK sampling was obtained from all subjects prior to efavirenz administration (pre-dose) and at specified time points after efavirenz administration on Days 1 and 29 for each treatment sequence. The recorded times for dasotraline PK plasma sample collections were relative to efavirenz dosing time. The primary parameters for efavirenz analysis were maximum observed plasma concentration (Cmax), time of maximum observed plasma concentration (tmax), area under the concentration-time curve (AUC) from time 0 to time t (AUC0-t), AUC from time 0 to the time of last measurable concentration (AUC0-last), AUC from time 0 extrapolated to infinity (AUC0-inf), terminal elimination rate constant (λZ), apparent terminal elimination half-life (t1/2), apparent total clearance (CL/F), and apparent volume of distribution during the terminal elimination phase (Vz/F). The primary parameters for dasotraline analysis were Cmax, AUC0-last, AUC0-t, and AUC0-inf.
Statistical Methods: All analyses involving PK data (e.g., plasma concentrations, derived PK parameters, assessment of drug-drug interaction) were performed on the PK population. For plasma concentrations of dasotraline and efavirenz, descriptive statistics (e.g., number, arithmetic mean, arithmetic standard deviation, minimum, median, maximum, 25th percentile, 75th percentile, geometric mean, and geometric coefficient of variation) were listed and summarized by time point by treatment for the PK population. Mean plasma concentration-time profiles were plotted by treatment on linear and semi-logarithmic scales. Individual subject linear and semi-logarithmic concentration-time plots, with respective treatments presented together, were included in the appendices.
To evaluate the effect of dasotraline on the PK of efavirenz, a mixed effect analysis of variance (ANOVA) was applied for the primary endpoint on natural log-transformed Cmax, AUC0-last, AUC0-t, and AUC0-inf of efavirenz. The model included treatment, sequence, and period as fixed effects and subject nested within sequence as a random effect. Only subjects who completed both treatment periods were included in the overall ANOVA to allow for an intra-subject comparison to be conducted. […]
The source holds these as a separate data set.

On to `N[C@@H]1CC[C@@H](c2ccc(Cl)c(Cl)c2)c2ccccc21` [Dasotraline, (1R,4S)-4-(3,4-dichlorophenyl)-1,2,3,4-tetrahydronaphthalen-1-amine], for which, in the series “clinical [1]”, the Tmax was in the range of 10 to 12 h and the half-life is 47.1 to 77 h. Also, on CYP2B6 (direct competitive inhibition, read-out: inhibition constant), the Ki is 220 nM. For the same molecule, at CYP2B6 (time-dependent inhibition), the apparent inactivation constant turned out to be 0.12 µM and the “maximal inactivation rate constant” value came out at 0.15 min⁻¹.

In the series “clinical [2]” (both sexes), `O=C1Nc2ccc(Cl)cc2[C@@](C#CC2CC2)(C(F)(F)F)O1` [Efavirenz] yielded a Vd/F of 525 L. For the same molecule, in the series “clinical [2]” (both sexes, 400 mg), the peak level (Cmax) was 1560 ng/mL and the Vd/F was 759 L. The molecule also showed an AUC(0-t) in “clinical [2]” (both sexes, 400 mg, AUC0-24) of 18200 ng·h/mL. In addition, the total exposure AUC(0-inf) in the series “clinical [2]” (both sexes, 400 mg, AUC0-inf) was determined as 92000 ng·h/mL. Moreover, the AUC(0-t) in the series “clinical [2]” (both sexes, 400 mg, AUC0-last) was found to be 80400 ng·h/mL. The molecule further showed a half-life in “clinical [2]” (both sexes, 400 mg, t1/2) of 143 h. Further, the Tmax in the series “clinical [2]” (both sexes, 400 mg, tmax, median) is 3.05 h. The same molecule showed an AUC(0-t) in the series “clinical [2]” (both sexes, Mean AUC from time 0 to 24 hours post-dose (AUC0-24)) of 19000 ng·h/mL. In the series “clinical [2]” (both sexes, Mean terminal half-life), this molecule gave a half-life of 143 h. Further, in “clinical [2]” (both sexes, Median tmax), the Tmax was determined as 4 h. The AUC(0-inf) in “clinical [2]” (both sexes, mean AUC0-inf) amounted to 87900 ng·h/mL. The AUC(0-t) in “clinical [2]” (both sexes, mean AUC0-last) turned out to be 112000 ng·h/mL. Also, the half-life in the series “clinical [2]” (both sexes, t1/2) is 161 h. Moreover, the Tmax in “clinical [2]” (both sexes, tmax, median) came out at 4 h. Further, in the series “clinical [2]” (both), the “Mean AUC from time 0 to 24 hours post-dose (AUC0-24)” value is 17,700 h*ng/mL, the Mean terminal half-life was determined as 161 h, the Median tmax result is “approximately 3 hours” and the “geometric LS mean ratio for AUC0-24” value was found to be 107.5%. For the same molecule, in “clinical [2]” (both), the “geometric LS mean ratio for AUC0-inf” value was determined as 153.5%, the “geometric LS mean ratio for AUC0-last” value worked out at 143.1%, the “geometric LS mean ratio for Cmax” value is listed as 98.5% and the “mean AUC0-inf” value is 135,000 h*ng/mL. Also, in “clinical [2]” (both), the “mean AUC0-last” value was 78,200 h*ng/mL.
